Patent publication US8940766B2, “Methods for preventing and/or treating lysosomal storage disorders” (Amicus Therapeutics, Inc., priority 2009, dated 2015)

Legend:
[1] = Blood brain barrier penetration after oral administration to mice; assay type: in vivo, mice (C57BL/6); details: single 30 mg/kg (free base equivalent) p.o. dose, FIG. 2
Description: For this purpose, 8-week old wild-type male mice (C57BL/6) were administered a single 30 mg/kg (free base equivalent) p.o. dose of reference or test compound by gavage (n=3 mice per time point). Dosing solutions were prepared in water. After dosing, mice were euthanized with CO2 at the following time points: 0-, 0.5-, 1-, and 4-hour post-dose. […] Similarly, brains were collected from each mouse. Plasma was derived by spinning whole blood at 2700 g for 10 minutes at 4° C. followed by storage on dry ice. Whole brains were washed in cold PBS to remove contaminating blood, blotted dry, flash frozen on dry ice, and ultimately stored at −80° C. until analysis. To prepare brain samples for analysis, 50-100 mg of tissue was homogenized in […]. Samples were then clarified by centrifugation. Next, 25 μl of the brain homogenate supernatant or 25 μl of plasma were combined with 25 μl of acetonitrile:water (95/5). […] Between 20 and 30 μl sample was injected for analysis. […] When Compound B was analyzed, Compound A was used as internal standard (150.1/130.1). For calculating drug concentrations, raw data for plasma (ng/mL) and brain (ng/g) was converted to nM using the molecular weight of respective compounds and assuming 1 g of tissue is equivalent to 1 mL volume. Concentration as a function of time was plotted in GraphPad Prism version 4.02.

GCase = molecular target: T1, GCase (Homo sapiens, UniProt P04062); test: Concentration-dependent increase in GCase activity (EC50, Emax); assay type: cell-based; details: result in words
T1 sequence (P04062 40-536): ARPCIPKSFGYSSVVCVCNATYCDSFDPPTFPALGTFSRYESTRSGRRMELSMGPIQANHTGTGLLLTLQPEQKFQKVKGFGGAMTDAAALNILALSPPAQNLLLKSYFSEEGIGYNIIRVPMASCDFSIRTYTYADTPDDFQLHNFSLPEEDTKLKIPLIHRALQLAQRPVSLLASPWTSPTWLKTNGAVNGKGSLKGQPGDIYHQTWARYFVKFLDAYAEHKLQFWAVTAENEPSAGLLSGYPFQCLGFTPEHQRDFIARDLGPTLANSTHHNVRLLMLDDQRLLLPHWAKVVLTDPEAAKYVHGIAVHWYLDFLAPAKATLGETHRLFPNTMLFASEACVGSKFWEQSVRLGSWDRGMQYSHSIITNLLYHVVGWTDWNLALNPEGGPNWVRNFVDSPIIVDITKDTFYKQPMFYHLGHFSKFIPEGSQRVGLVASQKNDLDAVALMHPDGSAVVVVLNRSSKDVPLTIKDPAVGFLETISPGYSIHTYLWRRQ

lysosomal GCase = molecular target: T2, lysosomal GCase (Homo sapiens, UniProt P04062); test: In situ washout assay in fibroblasts (recovery of lysosomal GCase activity after compound removal); assay type: cell-based; details: fibroblasts treated at IC90 for 16-24 hours, then drug-free medium; single exponential fit
T2 construct: assayed in situ using fibroblasts established from a normal subject; endogenous in cells; host or cells: fibroblasts from a normal subject
T2 sequence (P04062 40-536): T1 sequence (P04062 40-536)
Description: Cells seeded in 48-well plates were incubated with the indicated concentrations of compound for 16-24 hours. For the dose-response assays, cells were incubated with the in situ substrate 5-(pentafluorobenzoylamino)fluorescein di-β-D-glucopyranoside (PFBFDβGlu) for 1 hour and subsequently lysed to determine the extent of substrate hydrolysis in the presence of compound. […] Inhibition was determined as the ratio of activity in the presence of compound to that in the absence of compound. […] Cells were washed extensively and incubated in drug-free medium to allow net compound efflux from cells. Cells were then tested for lysosomal GCase activity at 2 hour intervals over a total period of 8 hours following compound removal. The increase in activity over time was fitted with a single exponential function to determine the compound's washout time.

SMILES: O[C@@H]1[C@@H](CCl)CNC[C@H]1O [Compound B, (3R,4R,5S)-5-(chloromethyl)piperidine-3,4-diol]
- brain levels compared to Compound A [1]: even higher levels of Compound B were detected in brain than that observed following administration of the hydrochloride salt form of Compound A
- effect on GCase activity (GCase): concentration-dependent increase in GCase activity
- enhancement of enzyme activity compared to IFG-tartrate (GCase): enhanced enzyme activity to the same maximum level at much lower concentration
- In Situ Washout (lysosomal GCase): 2.9 ± 0.22 h
